The source made the active and inactive calls. How the calls were made is not given here.
Tested on: CCRIS mutagenicity, Ames/micronucleus/aberration tests
Test: CCRIS mutagenicity studies
[1] = Test System: AMES SALMONELLA TYPHIMURIUM, Strain/Indicator: TA98, Metabolic Activation: NONE, Method: STANDARD PLATE
[2] = Test System: AMES SALMONELLA TYPHIMURIUM, Strain/Indicator: TA100, Metabolic Activation: NONE, Method: PREINCUBATION
[3] = Test System: AMES SALMONELLA TYPHIMURIUM, Strain/Indicator: TA102, Metabolic Activation: NONE, Method: STANDARD PLATE
[4] = Test System: AMES SALMONELLA TYPHIMURIUM, Strain/Indicator: TA1535, Metabolic Activation: NONE, Method: STANDARD PLATE
[5] = Test System: AMES SALMONELLA TYPHIMURIUM, Strain/Indicator: TA98, Metabolic Activation: RAT, LIVER, S-9, AROCLOR 1254, Method: STANDARD PLATE

Which results are given for `CCN(CC)C(=O)/C(Cl)=C(\C)OP(=O)(OC)OC`?
mutagenic call (End Point: IN VITRO CHROMOSOMAL ABERRATIONS, Test System: HUMAN PERIPHERAL BLOOD LYMPHOCYTES, Metabolic Activation: NONE): active; positive (structural changes); mutagenic call (Test System: AMES SALMONELLA TYPHIMURIUM, Strain/Indicator: G46, Metabolic Activation: HOST-MEDIATED, Method: STANDARD PLATE): active; positive; mutagenic call (Test System: AMES SALMONELLA TYPHIMURIUM, Strain/Indicator: TA97A, Metabolic Activation: NONE, Method: STANDARD PLATE): inactive; negative; mutagenic call (Test System: AMES SALMONELLA TYPHIMURIUM, Strain/Indicator: TA97A, Metabolic Activation: PLANT, HOMOGENATE, S-14, Method: STANDARD PLATE): inactive; negative; mutagenic call (Test System: AMES SALMONELLA TYPHIMURIUM, Strain/Indicator: TA97A, Metabolic Activation: S-9, Method: STANDARD PLATE): inactive; negative; mutagenic call [1]: inactive; negative; mutagenic call (Test System: AMES SALMONELLA TYPHIMURIUM, Strain/Indicator: TA98, Metabolic Activation: PLANT, HOMOGENATE, S-14, Method: STANDARD PLATE): inactive; negative; mutagenic call (Test System: AMES SALMONELLA TYPHIMURIUM, Strain/Indicator: TA98, Metabolic Activation: S-9, Method: STANDARD PLATE): inactive; negative; mutagenic call [2]: active; positive; mutagenic call (Test System: AMES SALMONELLA TYPHIMURIUM, Strain/Indicator: TA100, Metabolic Activation: PLANT, HOMOGENATE, S-14, Method: STANDARD PLATE): inactive; negative; mutagenic call (Test System: AMES SALMONELLA TYPHIMURIUM, Strain/Indicator: TA100, Metabolic Activation: S-9, Method: STANDARD PLATE): inactive; negative; mutagenic call [3]: inactive; negative; mutagenic call (Test System: AMES SALMONELLA TYPHIMURIUM, Strain/Indicator: TA104, Metabolic Activation: NONE, Method: STANDARD PLATE): inactive; negative; mutagenic call [4]: inactive; negative; mutagenic call (Test System: AMES SALMONELLA TYPHIMURIUM, Strain/Indicator: TA1535, Metabolic Activation: PLANT, HOMOGENATE, S-14, Method: STANDARD PLATE): inactive; negative; mutagenic call (Test System: AMES SALMONELLA TYPHIMURIUM, Strain/Indicator: TA1535, Metabolic Activation: S-9, Method: STANDARD PLATE): inactive; negative

How did the mutagenic call (Test System: AMES SALMONELLA TYPHIMURIUM, Strain/Indicator: TA97, Metabolic Activation: NONE, Method: STANDARD PLATE) turn out when `OC[C@H]1O[C@@H](n2cnc3c(NC[C@H](O)COc4cccc5ccccc45)ncnc32)[C@H](O)[C@@H]1O` was run?
The mutagenic call was “inactive; negative”.

And the mutagenic call (Test System: AMES SALMONELLA TYPHIMURIUM, Strain/Indicator: TA97, Metabolic Activation: RAT, LIVER, S-9, AROCLOR 1254, Method: STANDARD PLATE)?
The mutagenic call was “inactive; negative”.

And the mutagenic call [1]?
Its mutagenic call is “inactive; negative”.

What about the mutagenic call [5] of the same compound?
Its mutagenic call is “inactive; negative”.

And the mutagenic call (Test System: AMES SALMONELLA TYPHIMURIUM, Strain/Indicator: TA100, Metabolic Activation: NONE, Method: STANDARD PLATE)?
The mutagenic call was “inactive; negative”.

What about the mutagenic call (Test System: AMES SALMONELLA TYPHIMURIUM, Strain/Indicator: TA100, Metabolic Activation: RAT, LIVER, S-9, AROCLOR 1254, Method: STANDARD PLATE) of the same compound?
Its mutagenic call is “inactive; negative”.

What about the mutagenic call [4] of the same compound?
The mutagenic call was “inactive; negative”.

And the mutagenic call (Test System: AMES SALMONELLA TYPHIMURIUM, Strain/Indicator: TA1535, Metabolic Activation: RAT, LIVER, S-9, AROCLOR 1254, Method: STANDARD PLATE)?
The mutagenic call was “inactive; negative”.

And the mutagenic call (Test System: AMES SALMONELLA TYPHIMURIUM, Strain/Indicator: TA1538, Metabolic Activation: NONE, Method: STANDARD PLATE)?
The mutagenic call was “inactive; negative”.

And the mutagenic call (Test System: AMES SALMONELLA TYPHIMURIUM, Strain/Indicator: TA1538, Metabolic Activation: RAT, LIVER, S-9, AROCLOR 1254, Method: STANDARD PLATE)?
The mutagenic call was “inactive; negative”.

And the mutagenic call (Test System: CHINESE HAMSTER OVARY, Strain/Indicator: CHO-KL-BH4 (HGPRT), Metabolic Activation: NONE)?
Its mutagenic call is “inactive; negative”.

And the mutagenic call (Test System: CHINESE HAMSTER OVARY, Strain/Indicator: CHO-KL-BH4 (HGPRT), Metabolic Activation: RAT, LIVER, S-9, AROCLOR 1254)?
The mutagenic call was “inactive; negative”.

What about the mutagenic call (Test System: MOUSE LYMPHOMA, Strain/Indicator: L5178Y (TK+/TK-), Metabolic Activation: NONE, Method: SUSPENSION/PLATE) of the same compound?
Its mutagenic call is “inactive; negative”.

What about the mutagenic call (Test System: MOUSE LYMPHOMA, Strain/Indicator: L5178Y (TK+/TK-), Metabolic Activation: RAT, LIVER, S-9, AROCLOR 1254, Method: SUSPENSION/PLATE) of the same compound?
The mutagenic call was “active; positive”.

For `CCOP(=S)(OCC)Oc1cnc2ccccc2n1`, which mutagenic call [1] is on record?
Its mutagenic call is “inactive; negative”.

What about the mutagenic call (Test System: AMES SALMONELLA TYPHIMURIUM, Strain/Indicator: TA98, Metabolic Activation: S-9, NADPH GENERATING SYSTEM, Method: STANDARD PLATE) of the same compound?
Its mutagenic call is “inactive; negative”.

What about the mutagenic call [3] of the same compound?
Its mutagenic call is “inactive; negative”.

What about the mutagenic call (Test System: AMES SALMONELLA TYPHIMURIUM, Strain/Indicator: TA102, Metabolic Activation: S-9, NADPH GENERATING SYSTEM, Method: STANDARD PLATE) of the same compound?
Its mutagenic call is “inactive; negative”.

And the mutagenic call [4]?
The mutagenic call was “inactive; negative”.

What about the mutagenic call (Test System: AMES SALMONELLA TYPHIMURIUM, Strain/Indicator: TA1535, Metabolic Activation: S-9, NADPH GENERATING SYSTEM, Method: STANDARD PLATE) of the same compound?
The mutagenic call was “inactive; negative”.

What about the mutagenic call (Test System: AMES SALMONELLA TYPHIMURIUM, Strain/Indicator: TA1537, Metabolic Activation: NONE, Method: STANDARD PLATE) of the same compound?
The mutagenic call was “inactive; negative”.

What about the mutagenic call (Test System: AMES SALMONELLA TYPHIMURIUM, Strain/Indicator: TA1537, Metabolic Activation: S-9, NADPH GENERATING SYSTEM, Method: STANDARD PLATE) of the same compound?
The mutagenic call was “inactive; negative”.

For `OCC(O)CO`, which mutagenic call (End Point: IN VITRO CHROMOSOMAL ABERRATIONS, Test System: CHO-WBL CELLS, Metabolic Activation: NONE) is on record?
Its mutagenic call is “inactive; negative”.

And the mutagenic call (Test System: AMES SALMONELLA TYPHIMURIUM, Strain/Indicator: TA97, Metabolic Activation: NONE, Method: PREINCUBATION)?
Its mutagenic call is “inactive; negative”.

What about the mutagenic call (Test System: AMES SALMONELLA TYPHIMURIUM, Strain/Indicator: TA97, Metabolic Activation: RAT, LIVER, S-9, AROCLOR 1254, Method: PREINCUBATION) of the same compound?
Its mutagenic call is “inactive; negative”.

And the mutagenic call (Test System: AMES SALMONELLA TYPHIMURIUM, Strain/Indicator: TA98, Metabolic Activation: NONE, Method: PREINCUBATION)?
The mutagenic call was “inactive; negative”.

And the mutagenic call (Test System: AMES SALMONELLA TYPHIMURIUM, Strain/Indicator: TA98, Metabolic Activation: RAT, LIVER, S-9, KC 500, Method: PREINCUBATION)?
Its mutagenic call is “inactive; negative”.

What about the mutagenic call [2] of the same compound?
The mutagenic call was “inactive; negative”.

And the mutagenic call (Test System: AMES SALMONELLA TYPHIMURIUM, Strain/Indicator: TA100, Metabolic Activation: RAT, LIVER, S-9, KC 500, Method: PREINCUBATION)?
Its mutagenic call is “inactive; negative”.

What about the mutagenic call (Test System: AMES SALMONELLA TYPHIMURIUM, Strain/Indicator: TA102, Metabolic Activation: NONE, Method: PREINCUBATION) of the same compound?
Its mutagenic call is “inactive; negative”.

And the mutagenic call (Test System: AMES SALMONELLA TYPHIMURIUM, Strain/Indicator: TA102, Metabolic Activation: RAT, LIVER, S-9, AROCLOR 1254, Method: PREINCUBATION)?
The mutagenic call was “inactive; negative”.

What about the mutagenic call (Test System: AMES SALMONELLA TYPHIMURIUM, Strain/Indicator: TA1535, Metabolic Activation: NONE, Method: PREINCUBATION) of the same compound?
Its mutagenic call is “inactive; negative”.

What about the mutagenic call (Test System: AMES SALMONELLA TYPHIMURIUM, Strain/Indicator: TA1535, Metabolic Activation: RAT, LIVER, S-9, KC 500, Method: PREINCUBATION) of the same compound?
Its mutagenic call is “inactive; negative”.

What about the mutagenic call (Test System: AMES SALMONELLA TYPHIMURIUM, Strain/Indicator: TA1537, Metabolic Activation: NONE, Method: PREINCUBATION) of the same compound?
Its mutagenic call is “inactive; negative”.

What about the mutagenic call (Test System: AMES SALMONELLA TYPHIMURIUM, Strain/Indicator: TA1537, Metabolic Activation: RAT, LIVER, S-9, KC 500, Method: PREINCUBATION) of the same compound?
The mutagenic call was “inactive; negative”.

And the mutagenic call (Test System: AMES SALMONELLA TYPHIMURIUM, Strain/Indicator: TA1538, Metabolic Activation: NONE, Method: PREINCUBATION)?
The mutagenic call was “inactive; negative”.

What about the mutagenic call (Test System: AMES SALMONELLA TYPHIMURIUM, Strain/Indicator: TA1538, Metabolic Activation: RAT, LIVER, S-9, KC 500, Method: PREINCUBATION) of the same compound?
The mutagenic call was “inactive; negative”.

What about the mutagenic call (Test System: E. COLI, Strain/Indicator: WP2 UVRA, Metabolic Activation: NONE, Method: PREINCUBATION) of the same compound?
Its mutagenic call is “inactive; negative”.

What about the mutagenic call (Test System: E. COLI, Strain/Indicator: WP2 UVRA, Metabolic Activation: RAT, LIVER, S-9, KC 500, Method: PREINCUBATION) of the same compound?
Its mutagenic call is “inactive; negative”.

`CC(=O)Nc1cc2c(cc1OC(C)=O)-c1ccccc1C2` was tested. Which mutagenic call [5] did it give?
The mutagenic call was “inactive; negative”.

Reference: PubChem BioAssay AID1259407 (Chemical Carcinogenesis Research Information System (CCRIS), 2018)
